Reference: patent publication US20220062240A1, “METHODS OF TREATING CANCER USING A CLK INHIBITOR” (BioSplice Therapeutics, Inc., priority 2018, published 2022)
Like-named read-outs stand apart in the source and are kept apart here. Values belong to the compound of their own block, whether it stands above or below them.

Experiments:
[1] = test system: liver cancer (3 cell lines); assay: CellTiter-Glo Viability Assay, liver cancer; type: cell-based; details: Homo sapiens, inhibition of cancer cell proliferation
[2] = test system: pancreatic cancer (8 cell lines); assay: CellTiter-Glo Viability Assay, pancreatic cancer; type: cell-based; details: Homo sapiens, inhibition of cancer cell proliferation
[3] = test system: prostate cancer (5 cell lines); assay: CellTiter-Glo Viability Assay, prostate cancer; type: cell-based; details: Homo sapiens
[4] = test system: ovarian cancer (4 cell lines); assay: CellTiter-Glo Viability Assay, ovarian cancer; type: cell-based; details: Homo sapiens, inhibition of cancer cell proliferation
DU4475 = assay: CellTiter-Glo Viability Assay, breast cancer; type: cell-based; details: Homo sapiens, DU-4475, 96 h; DU4475, breast cancer, four days; read-out: EC50
MCF7 = assay: CellTiter-Glo Viability Assay, breast cancer; type: cell-based; details: Homo sapiens, 96 h; MCF7, breast cancer, four days; read-out: EC50
HCC1599 = assay: CellTiter-Glo Viability Assay, breast cancer; type: cell-based; details: Homo sapiens, 96 h; HCC1599, breast cancer, four days; read-out: EC50
CAMA1 = assay: CellTiter-Glo Viability Assay, breast cancer; type: cell-based; details: Homo sapiens, CAMA-1, 96 h; CAMA1, breast cancer, four days; read-out: EC50
ZR-75-1 = assay: CellTiter-Glo Viability Assay, breast cancer; type: cell-based; details: Homo sapiens, 96 h; ZR-75-1, breast cancer, four days; read-out: EC50
T47D = assay: CellTiter-Glo Viability Assay, breast cancer; type: cell-based; details: Homo sapiens, 96 h, breast cancer, four days, read-out: EC50
BT-549 = assay: CellTiter-Glo Viability Assay, breast cancer; type: cell-based; details: Homo sapiens, 96 h; BT-549, breast cancer, four days; read-out: EC50
MDA-MB-231-Luc = assay: CellTiter-Glo Viability Assay, breast cancer; type: cell-based; details: Homo sapiens, 96 h; MDA-MB-231-Luc, breast cancer, four days; read-out: EC50
[5] = test system: lung cancer (4 cell lines); assay: CellTiter-Glo Viability Assay, lung cancer; type: cell-based; details: Homo sapiens, inhibition of cancer cell proliferation
[6] = test system: colorectal cancer (6 cell lines); assay: CellTiter-Glo Viability Assay, colorectal cancer; type: cell-based; details: Homo sapiens, inhibition of cancer cell proliferation
CLK2 = biological target: T1, CLK2 (Homo sapiens, UniProt P49760); assay: CLK2 kinase activity assay (Z-lyte, Ser/Thr 6 peptide); type: biochemical; details: recombinant CLK2 kinase, ATP 60 μM; read-out: EC50
T1 construct: purchased Thermo Fisher (Life Technologies), Z'-LYTE Kinase Assay Kits
Protocol: All reactions were performed in duplicate.

all 50 cell lines = assay: CellTiter-Glo Viability Assay, average across all cell lines; type: cell-based; details: Homo sapiens; across all 50 cell lines; read-out: average EC50 for inhibition of cancer cell proliferation
Outline: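 4-day proliferation, 37° C/5% CO2; 300-3,000 cells/well; compound in duplicate vs DMSO controls. Panel: breast, colorectal, heme/lymphoid, liver, lung, ovarian, pancreatic, prostate lines. Read-out: CellTiter-Glo ATP luminescence, EC50 from dose-response.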

[7] = test system: haematopoietic & lymphoid tumors (13 cell lines); assay: CellTiter-Glo Viability Assay, haematopoietic & lymphoid tumors; type: cell-based; details: Homo sapiens, inhibition of cancer cell proliferation
[8] = SNU-398, SNU398 cell line, read-out: Liver cancer, EC50 SNU398
[9] = HEPG2 cell line, read-out: Liver cancer, EC50 HEPG2
[10] = PLC/PRF/5 cell line, read-out: Liver cancer, EC50 PLC/PRF/5
[11] = BXPC-3, BxPC3 cell line, read-out: Pancreatic cancer, EC50 BxPC3
[12] = CAPAN-1, Capan1 cell line, read-out: Pancreatic cancer, EC50 Capan1
[13] = Capan-2, Capan2 cell line, read-out: Pancreatic cancer, EC50 Capan2
[14] = MIA PaCa-2 cell line, read-out: Pancreatic cancer, EC50 MIA PaCa-2
[15] = PANC 05.04 cell line, read-out: Pancreatic cancer, EC50 PANC 05.04
[16] = PANC-1 cell line, read-out: Pancreatic cancer, EC50 PANC-1
[17] = UPAFII cell line, read-out: Pancreatic cancer, EC50 UPAFII
[18] = DU-145, read-out: Prostate cancer EC50 Du-145
[19] = PC-3, PC3 cell line, inhibition of cancer cell proliferation, read-out: Prostate cancer EC50 PC3
[20] = 22Rv1 cell line, inhibition of cancer cell proliferation, read-out: Prostate cancer EC50 22Rv1
[21] = LNCap clone FGC cell line, inhibition of cancer cell proliferation, read-out: Prostate cancer EC50 LNCap clone FGC
[22] = VCaP (Sigma) cell line, inhibition of cancer cell proliferation, read-out: Prostate cancer EC50 VCaP (Sigma)
[23] = PA-1, PA1 cell line, read-out: Ovarian cancer, EC50 (μM) PA1
[24] = TOV112D, TOV-112D cell line, read-out: Ovarian cancer, EC50 (μM) TOV-112D
[25] = OV-90 cell line, read-out: Ovarian cancer, EC50 (μM) OV-90
[26] = OVCAR-3 cell line, read-out: Ovarian cancer, EC50 (μM) OVCAR-3
[27] = A-427, A427 cell line, read-out: Lung cancer, EC50 (μM) A427
[28] = HCC78, HCC-78 cell line, read-out: Lung cancer, EC50 (μM) HCC-78
[29] = NCI-H460 cell line, read-out: Lung cancer, EC50 (μM) NCI-H460
[30] = NCI-H522 cell line, read-out: Lung cancer, EC50 (μM) NCI-H522
[31] = HCT-116, HCT116 cell line, read-out: Colorectal cancer, EC50 (μM) HCT116
[32] = HT-29, HT29 cell line, read-out: Colorectal cancer, EC50 (μM) HT29
[33] = SW-620, SW620 cell line, read-out: Colorectal cancer, EC50 (μM) SW620
[34] = DLD-1 cell line, read-out: Colorectal cancer, EC50 (μM) DLD-1
[35] = SW48 cell line, read-out: Colorectal cancer, EC50 (μM) SW48
[36] = SW480 cell line, read-out: Colorectal cancer, EC50 (μM) SW480
[37] = DND41, DND-41 cell line, read-out: Haematopoietic & Lymphoid tumors, EC50 (μM) DND-41
[38] = MV4-11, MV-4-11 cell line, read-out: Haematopoietic & Lymphoid tumors, EC50 (μM) MV-4-11
[39] = Rec1, REC-1 cell line, read-out: Haematopoietic & Lymphoid tumors, EC50 (μM) REC-1
[40] = SU-DHL-4, SUDHL4 cell line, read-out: Haematopoietic & Lymphoid tumors, EC50 (μM) SUDHL4
[41] = HL-60 cell line, read-out: Haematopoietic & Lymphoid tumors, EC50 (μM) HL-60
[42] = JM1 cell line, read-out: Haematopoietic & Lymphoid tumors, EC50 (μM) JM1
[43] = JURKAT, Clone E6-1 cell line, read-out: Haematopoietic & Lymphoid tumors, EC50 (μM) JURKAT, Clone E6-1
[44] = JeKo-1 cell line, read-out: Haematopoietic & Lymphoid tumors, EC50 (μM) JeKo-1
[45] = KASUMI-1 cell line, read-out: Haematopoietic & Lymphoid tumors, EC50 (μM) KASUMI-1
[46] = Loucy cell line, read-out: Haematopoietic & Lymphoid tumors, EC50 (μM) Loucy
[47] = MOLT-4 cell line, read-out: Haematopoietic & Lymphoid tumors, EC50 (μM) MOLT-4
[48] = TF-1 cell line, read-out: Haematopoietic & Lymphoid tumors, EC50 (μM) TF-1
[49] = TOLEDO cell line, read-out: Haematopoietic & Lymphoid tumors, EC50 (μM) TOLEDO

T1 sequence (P49760 whole entry): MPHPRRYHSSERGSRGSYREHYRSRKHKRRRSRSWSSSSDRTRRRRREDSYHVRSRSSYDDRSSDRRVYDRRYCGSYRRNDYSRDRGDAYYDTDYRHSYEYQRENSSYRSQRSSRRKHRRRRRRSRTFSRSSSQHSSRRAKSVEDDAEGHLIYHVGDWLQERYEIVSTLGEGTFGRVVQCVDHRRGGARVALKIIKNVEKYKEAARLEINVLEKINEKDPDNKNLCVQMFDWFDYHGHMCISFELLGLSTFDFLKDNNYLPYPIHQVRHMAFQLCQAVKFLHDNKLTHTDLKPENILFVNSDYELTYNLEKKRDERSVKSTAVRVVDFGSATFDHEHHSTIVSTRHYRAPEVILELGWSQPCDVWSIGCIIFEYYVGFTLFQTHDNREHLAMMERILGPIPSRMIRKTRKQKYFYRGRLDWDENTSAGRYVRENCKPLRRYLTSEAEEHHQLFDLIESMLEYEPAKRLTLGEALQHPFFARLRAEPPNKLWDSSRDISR

EC50 [1, 8]: 0.166 µM
EC50 [1, 9]: 0.372 µM
EC50 [1, 10]: 0.864 µM
EC50 [2, 11]: 0.918 µM
EC50 [2, 12]: 1.02 µM
EC50 [2, 13]: 1.42 µM
EC50 [2, 14]: 0.433 µM
EC50 [2, 15]: 0.664 µM
EC50 [2, 16]: 1.16 µM
EC50 [2, 17]: 0.281 µM
EC50 [3, 18]: 0.748 µM
EC50 [3, 19]: 0.866 µM
EC50 [3, 20]: 0.316 µM
EC50 [3, 21]: 0.426 µM
EC50 [3, 22]: 3.4 µM
EC50 [4, 23]: 0.195 µM
EC50 [4, 24]: 0.233 µM
EC50 [4, 25]: 0.901 µM
EC50 [4, 26]: 0.406 µM
EC50 (DU4475): 0.374 µM
EC50 (MCF7): 3.34 µM
EC50 (HCC1599): 0.648 µM
EC50 (CAMA1): 1.23 µM
EC50 (ZR-75-1): 0.412 µM
EC50 (T47D): 1.29 µM
EC50 (BT-549): 0.718 µM
EC50 (MDA-MB-231-Luc): 0.312 µM
EC50 [5, 27]: 0.756 µM
EC50 [5, 28]: 0.666 µM
EC50 [5, 29]: 0.922 µM
EC50 [5, 30]: 0.43 µM
EC50 [6, 31]: 0.156 µM
EC50 [6, 32]: 0.318 µM
EC50 [6, 33]: 0.125 µM
EC50 [6, 34]: 0.265 µM
EC50 [6, 35]: 0.131 µM
EC50 [6, 36]: 0.19 µM
EC50 (CLK2): 0.0019 µM
EC50 [7, 37]: 0.225 µM
EC50 [7, 38]: 0.101 µM
EC50 [7, 39]: 0.11 µM
EC50 [7, 40]: 0.498 µM
EC50 [7, 41]: 0.522 µM
EC50 [7, 42]: 0.122 µM
EC50 [7, 43]: 0.5 µM
EC50 [7, 44]: 0.458 µM
EC50 [7, 45]: 1 µM
EC50 [7, 46]: 0.385 µM
EC50 [7, 47]: 0.343 µM
EC50 [7, 48]: 0.35 µM
EC50 [7, 49]: 0.132 µM
Compound: CN1CCN(c2cc(C(=O)Nc3cc4cc(-c5cnn(C)c5)c(F)cc4cn3)ccn2)CC1 [Compound 69]
EC50 (all 50 cell lines): 0.636 µM

EC50 [1, 8]: 3.38 µM
EC50 [1, 9]: > 10 µM
EC50 [1, 10]: > 10 µM
EC50 [2, 11]: 7.25 µM
EC50 [2, 12]: > 10 µM
EC50 [2, 13]: > 10 µM
EC50 [2, 14]: 6.72 µM
EC50 [2, 15]: > 10 µM
EC50 [2, 16]: > 10 µM
EC50 [2, 17]: > 10 µM
EC50 [3, 18]: > 10 µM
EC50 [3, 19]: 8.34 µM
EC50 [3, 20]: 6.98 µM
EC50 [3, 21]: > 10 µM
EC50 [3, 22]: > 10 µM
EC50 [4, 23]: > 10 µM
EC50 [4, 24]: > 10 µM
EC50 [4, 25]: > 10 µM
EC50 [4, 26]: 3.89 µM
EC50 (DU4475): 1.66 µM
EC50 (MCF7): > 10 µM
EC50 (HCC1599): 2.2 µM
EC50 (CAMA1): > 10 µM
EC50 (ZR-75-1): > 10 µM
EC50 (T47D): > 10 µM
EC50 (BT-549): 5.81 µM
EC50 (MDA-MB-231-Luc): > 10 µM
EC50 [5, 27]: 7.79 µM
EC50 [5, 28]: > 10 µM
EC50 [5, 29]: > 10 µM
EC50 [5, 30]: 7.58 µM
EC50 [6, 31]: > 10 µM
EC50 [6, 32]: > 10 µM
EC50 [6, 33]: 7.7 µM
EC50 [6, 34]: > 10 µM
EC50 [6, 35]: 2.03 µM
EC50 [6, 36]: > 10 µM
EC50 (CLK2): 0.0028 µM
EC50 [7, 37]: 2.38 µM
EC50 [7, 38]: 0.188 µM
EC50 [7, 39]: 6.85 µM
EC50 [7, 40]: 0.953 µM
EC50 [7, 41]: 3.13 µM
EC50 [7, 42]: 1.68 µM
EC50 [7, 43]: > 10 µM
EC50 [7, 44]: 0.917 µM
EC50 [7, 45]: 9.46 µM
EC50 [7, 46]: 1.71 µM
EC50 [7, 47]: > 10 µM
EC50 [7, 48]: 4.32 µM
EC50 [7, 49]: 1.85 µM
Compound: CN1CCCn2cc(nn2)-c2nccc3[nH]c(nc23)-c2n[nH]c3ccc(cc23)-c2cncc(c2)C1 [Compound 57]
EC50 (all 50 cell lines): 7.29 µM
